From patent US12655150B2 (Cedilla Therapeutics, Inc., priority 2021, dated 2026)

Test system: NCI-H226
Experiment: 72H TEAD Proliferation Assay (Cell Titer Glo 2.0)
Assay type: cell-based
Settings: Homo sapiens, NCI-H226, 72 h, CTG 2.0, cell line not given (NCI-H226 responsive, NCI-H28 non-responsive)
Summary of the method: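 Growth read-out is ATP luminescence (CellTiter-Glo 2.0) after 72 h compound exposure, corrected for no-CTG background and day-0 values, with GI50 from nonlinear regression. Sensitive line NCI-H226 (NF2-deficient); non-responsive NCI-H28 (NF2 wild type) distinguishes TEAD-driven from nonspecific growth inhibition.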

| GI50 [nM] | SMILES |
| --- | --- |
| ≤ 1000 | C=CC(=O)NCc1cn2ncnc2c(-c2ccc(C(F)(F)F)cc2)n1 [I-236, N-((8-(4-(Trifluoromethyl)phenyl)-[1,2,4]triazolo[1,5-a]pyrazin-6-yl)methyl)acrylamide] |
| ≤ 1000 | C=CC(=O)NCc1nc(-c2ccc(C(F)(F)F)cc2)c2c(ccn2C)n1 [I-451, N-((5-methyl-4-(4-(trifluoromethyl)phenyl)-5H-pyrrolo[3,2-d]pyrimidin-2-yl)methyl)acrylamide] |
| ≤ 1000 | C#Cc1cc(-c2ccc(C(F)(F)F)cc2)nc2cc(C(=O)O)ccc12 [I-402, 4-ethynyl-2-(4-(trifluoromethyl)phenyl)quinoline-7-carboxylic acid] |
| 1000 to 5000 | COc1cc(-c2ccc(C(F)(F)F)cc2)nc2cc(C(=O)NC3(CO)CC3)ccc12 [I-353, N-(1-(hydroxymethyl)cyclopropyl)-4-methoxy-2-(4-(trifluoromethyl)phenyl)quinoline-7-carboxamide] |
| 1000 to 5000 | O=C(O)c1cc(CO)c2c(c1)nc(N1CCC3(CC1)CC3)c1cccn12 [I-278, 9-(hydroxymethyl)-4-(6-azaspiro[2.5]octan-6-yl)pyrrolo[1,2-a]quinoxaline-7-carboxylic acid] |
| ≤ 1000 | C=CC(=O)Nc1ccc2c(C)cc(-c3ccc(C(F)(F)F)cn3)nc2c1 [I-252, N-(4-methyl-2-(5-(trifluoromethyl)pyridin-2-yl)quinolin-7-yl)acrylamide] |
| ≤ 1000 | O=C(O)c1ccc2c(OC(F)F)cc(-c3ccc(C(F)(F)F)cc3)nc2c1 [I-331, 4-(Difluoromethoxy)-2-(4-(trifluoromethyl)phenyl)quinoline-7-carboxylic acid] |
| 5000 to 10000 | Cc1cc(-c2ccc(C(F)(F)F)cc2)nc2cc(-c3nnn[nH]3)ccc12 [I-254, 4-Methyl-7-(1H-tetrazol-5-yl)-2-(4-(trifluoromethyl)phenyl)quinoline] |
| 1000 to 5000 | COc1cc(-c2ccc(C(F)(F)F)cc2)nc2cc(C(=O)NC(CO)C3CCOCC3)ccc12 (single isomer, unassigned) [I-368, N-(2-hydroxy-1-(tetrahydro-2H-pyran-4-yl)ethyl)-4-methoxy-2-(4-(trifluoromethyl)phenyl)quinoline-7-carboxamide] |
| ≤ 1000 | C=CC(=O)NCc1cc2nccn2c(-c2ccc(C(F)(F)F)cc2)n1 [I-315, N-((5-(4-(trifluoromethyl)phenyl)imidazo[1,2-c]pyrimidin-7-yl)methyl)acrylamide] |
| 1000 to 5000 | CC(C)(C)c1ccc(-c2nc3cc(S(C)(=O)=O)ccc3n3cccc23)cc1 [I-323, 4-(4-(tert-butyl)phenyl)-7-(methylsulfonyl)pyrrolo[1,2-a]quinoxaline] |
| ≤ 1000 | C=CC(=O)Nc1ccc2c(OC)cc(-c3ccc(C(C)(C)C)cc3)nc2c1 [I-384, N-(2-(4-(Tert-butyl)phenyl)-4-methoxyquinolin-7-yl)acrylamide] |
| 5000 to 10000 | COc1cc(-c2ccc(C(F)(F)F)cc2)nc2cc(-c3ccccn3)ccc12 [I-418, 4-Methoxy-7-(pyridin-2-yl)-2-(4-(trifluoromethyl)phenyl)quinoline] |
| 1000 to 5000 | COC[C@H](C)NC(=O)c1cnc2c(N3CCC(CC(F)(F)F)CC3)cc(OC)cc2c1 [I-253, (S)-6-methoxy-N-(1-methoxypropan-2-yl)-8-(4-(2,2,2-trifluoroethyl)piperidin-1-yl)quinoline-3-carboxamide] |
| ≤ 1000 | C=CC(=O)NCc1nc(-c2ccc(C(F)(F)F)cc2F)c2ccccc2n1 [I-303, N-((4-(2-fluoro-4-(trifluoromethyl)phenyl)quinazolin-2-yl)methyl)acrylamide] |
| ≤ 1000 | O=C(/C=C/CF)NCc1cn2ccnc2c(-c2ccc(C(F)(F)F)cc2F)n1 [I-291, (E)-4-fluoro-N-((8-(2-fluoro-4-(trifluoromethyl)phenyl)imidazo[1,2-a]pyrazin-6-yl)methyl)but-2-enamide] |
| 1000 to 5000 | O=C(O)c1ccc2c(c1)nc(N1CCC3(CC1)CC3)c1ccnn12 [I-277, 4-(6-azaspiro[2.5]octan-6-yl)pyrazolo[1,5-a]quinoxaline-7-carboxylic acid] |
| ≤ 1000 | C=CC(=O)NCc1cn2ccnc2c(Oc2cccc(C(C)(C)C)c2)n1 [I-441, N-((8-(3-(tert-butyl)phenoxy)imidazo[1,2-a]pyrazin-6-yl)methyl)acrylamide] |
| ≤ 1000 | CC(C)(C)c1ccc(-c2nc3cc(C(=O)O)ccc3n3cc(OC(F)F)cc23)cc1 [I-274, 4-(4-(tert-butyl)phenyl)-2-(difluoromethoxy)pyrrolo[1,2-a]quinoxaline-7-carboxylic acid] |
| 1000 to 5000 | COCc1cc(-c2ccc(C(F)(F)F)cc2)nc2cc(C(=O)N[C@H](C)CO)ccc12 [I-271, (R)—N-(1-hydroxypropan-2-yl)-4-(methoxymethyl)-2-(4-(trifluoromethyl)phenyl)quinoline-7-carboxamide] |
| ≤ 1000 | C=CC(=O)NCc1cn2cccc2c(-c2ccc(C(F)(F)F)cn2)n1 [I-314, N-((1-(5-(Trifluoromethyl)pyridin-2-yl)pyrrolo[1,2-a]pyrazin-3-yl)methyl)acrylamide] |
| ≤ 1000 | C=CC(=O)NCc1nc(-c2ccc(C(F)(F)F)cc2)c2cccnc2n1 [I-304, N-((4-(4-(trifluoromethyl)phenyl)pyrido[2,3-d]pyrimidin-2-yl)methyl)acrylamide] |

Continued, molecule first:

| SMILES | GI50 [nM] |
| --- | --- |
| CCC(=O)Nc1ccc2c(c1)nc(-c1ccc(C(C)(C)C)cc1)c1nccn12 [I-134, N-(4-(4-(tert-butyl)phenyl)imidazo[1,2-a]quinoxalin-7-yl)propionamide] | 1000 to 5000 |
| CC(F)(F)C1CCN(c2nc3cc(C(=O)O)ccc3n3cccc23)CC1 [I-14, 4-(4-(1,1-Difluoroethyl)piperidin-1-yl)pyrrolo[1,2-a]quinoxaline-7-carboxylic acid] | > 10000 |
| C=CC(=O)Nc1cc(-c2ccc(C(C)(C)C)cc2)nc2cc(C(=O)O)ccc12 [I-103, 4-Acrylamido-2-(4-(tert-butyl)phenyl)quinoline-7-carboxylic acid] | > 10000 |
| C=CC(=O)Nc1ccc2c(c1)nc(-c1ccc(C(C)(C)C)cc1)c1cccn12 [I-119, N-(4-(4-(tert-butyl)phenyl)pyrrolo[1,2-a]quinoxalin-7-yl)acrylamide] | ≤ 1000 |
| CC(C)(C)c1ccc(-c2nc3cc(C#N)ccc3n3ccnc23)cc1 [I-75, 4-(4-(tert-Butyl)phenyl)imidazo[1,2-a]quinoxaline-7-carbonitrile] | > 10000 |
| COc1ccc(-c2nc3cc(C(=O)O)ccc3n3ccnc23)cc1 [I-64, 4-(4-Methoxyphenyl)imidazo[1,2-a]quinoxaline-7-carboxylic acid] | > 10000 |
| CC(C)(C)c1ccc(-c2nc3cc(C(=O)O)ccc3n3ccnc23)c(F)c1 [I-59, 4-(4-(tert-Butyl)-2-fluorophenyl)imidazo[1,2-a]quinoxaline-7-carboxylic acid] | 1000 to 5000 |
| C=CC(=O)Nc1ccc2c(c1)nc(-c1ccc(C(F)(F)F)cn1)c1cccn12 [I-202, N-(4-(5-(trifluoromethyl)pyridin-2-yl)pyrrolo[1,2-a]quinoxalin-7-yl)acrylamide] | ≤ 1000 |
| CC(C)(C)c1ccc(-c2cnc3ccc(C(N)=O)cc3n2)cc1 [I-158, 3-(4-(tert-Butyl)phenyl)quinoxaline-6-carboxamide] | > 10000 |
| CC(C)(C)c1ccc(-c2nc3cc(C(=O)NCCO)ccc3n3cccc23)cc1 [I-185, 4-(4-(tert-butyl)phenyl)-N-(2-hydroxyethyl)pyrrolo[1,2-a]quinoxaline-7-carboxamide] | 1000 to 5000 |
| O=C(O)c1ccc2c(c1)nc(N1CCC3(CCOCC3)CC1)c1cccn12 [I-27, 4-(3-Oxa-9-azaspiro [5.5]undecan-9-yl) pyrrolo[1,2-a] quinoxaline-7-carboxylic acid] | 1000 to 5000 |
| CC(C)(C)c1ccc(-c2nc3cc(NS(C)(=O)=O)ccc3n3cccc23)cc1 [I-122, N-(4-(4-(tert-butyl)phenyl)pyrrolo[1,2-a]quinoxalin-7-yl)methanesulfonamide] | 1000 to 5000 |
| C=CC(=O)NCc1cn2ccnc2c(-c2ccc(C(F)(F)F)cc2)n1 [I-109, N-((8-(4-(trifluoromethyl)phenyl)imidazo[1,2-a]pyrazin-6-yl)methyl)acrylamide] | ≤ 1000 |
| CC(c1ccc(-c2nc3cc(C(=O)O)ccc3n3cccc23)cc1)C(F)(F)F (stereo not shown) [I-195, 4-(4-(1,1,1-trifluoropropan-2-yl)phenyl)pyrrolo[1,2-a]quinoxaline-7-carboxylic acid] | 1000 to 5000 |
| C=CC(=O)NCc1cn2ccnc2c(Oc2cccc(C(F)(F)F)c2)n1 [I-171, N-((8-(3-(trifluoromethyl)phenoxy)imidazo[1,2-a]pyrazin-6-yl)methyl)acrylamide] | ≤ 1000 |
| C=CC(=O)NC(C)c1cn2ccnc2c(-c2ccc(C(C)(C)C)cc2)n1 (stereo not shown) [I-142, N-(1-(8-(4-(tert-butyl)phenyl)imidazo[1,2-a]pyrazin-6-yl)ethyl)acrylamide] | ≤ 1000 |
| C=CC(=O)NCc1cn2ccnc2c(Nc2cccc(C(F)(F)F)c2)n1 [I-169, N-((8-((3-(trifluoromethyl)phenyl)amino)imidazo[1,2-a]pyrazin-6-yl)methyl) acrylamide] | ≤ 1000 |
| O=C(O)c1ccc2c(c1)nc(N1CCC3(CC1)CC3)c1nccn12 [I-56, 4-(6-Azaspiro[2.5]octan-6-yl)imidazo[1,2-a]quinoxaline-7-carboxylic acid] | > 10000 |
| C[C@H](CO)NC(=O)c1ccc2c(c1)nc(-c1ccc(C(C)(C)C)cc1)c1cccn12 [I-191, (R)-4-(4-(tert-butyl)phenyl)-N-(1-hydroxypropan-2-yl)pyrrolo[1,2-a]quinoxaline-7-carboxamide] | ≤ 1000 |
| CC(C)(C)c1ccc(-c2cncc3cc(C(=O)O)ccc23)cc1 [I-95, 4-(4-(tert-Butyl)phenyl)isoquinoline-7-carboxylic acid] | > 10000 |
| C=CC(=O)NCc1cn2cccc2c(-c2ccc(C(C)(C)C)cc2)n1 [I-111, N-((1-(4-(tert-butyl)phenyl)pyrrolo[1,2-a]pyrazin-3-yl)methyl)acrylamide] | ≤ 1000 |
